The test system of experiment [1] is DPP4 epitope peptide.
Protocol: For this test, the following two groups were prepared: a physiological saline group and an OSK-1-DPP4 conjugate group (100 μg/mouse) (6 animals per group). Test samples were intracutaneously administered to Balb/c mice 3 times at 2-week intervals. Before the first administration and every 2 weeks until 8 weeks after the first administration, blood samples were collected, and the antibody titer against the DPP4 epitope peptide was measured by ELISA.
For this test, the following three groups were prepared: a KLH-DPP4 conjugate group (20 μg/mouse), an OSK-1-DPP4 conjugate group (100 μg/mouse) and an OSK-1-DPP4 conjugate (100 μg/mouse) plus Alum (Alhydrogel 2% (InvivoGen) 1 mg/mouse) group (2 animals per group). […] Before the first administration, every 2 weeks until 6 weeks after the first administration, and 12 weeks after the first administration, blood samples were collected, and the antibody titer against the DPP4 epitope peptide was measured by ELISA.
Six types of OSK-1-DPP4 conjugates containing different mouse DPP4 epitope peptides (SEQ ID NOs: 3, 5, 6, 8, 18 and 19) were intracutaneously administered to Balb/c mice at a dose of 100 μg per animal 3 times at 2-week intervals. Before the first administration and every 2 weeks after the first administration, blood samples were collected, and the antibody titer against each epitope peptide was measured by ELISA. […]
The test system of the next experiment is DPP4. As to conditions: OSK-1-DPP4-17 100 μg/mouse; KLH-DPP4-17 20 μg/mouse mixed with Alum 1 mg/mouse; 4 administrations; 21 weeks; FIG. 8.
Experiment [2] has as its system DPP4 epitope peptide. The conditions noted are these: 4 administrations; blood at 11 weeks; FIG. 3.
Protocol: For this test, the following three groups were prepared: an OSK-1-DPP4 conjugate group (100 μg/mouse), a KLH-DPP4 conjugate (20 μg/mouse) plus Alum (Alhydrogel 2% (InvivoGen) 1 mg/mouse) group and a KLH-DPP4 conjugate (20 μg/mouse) plus OSK-1 (100 μg/mouse) group. Test samples were intracutaneously administered to Balb/c mice 3 times at 2-week intervals and at 9 weeks after the start of the administration, 4 times in total. At 11 weeks after the start of the administration, blood samples were collected, and the titer of each IgG subclass of antibodies against the DPP4 epitope peptide was measured by ELISA.
In experiment [3] the test system is B16F10 melanoma cells. As to conditions: vaccination once a week 4 times before implantation of B16F10 (1×10^5 cells/mouse). As to the method: In addition, the adjuvant effect of the OSK-1 peptide on the antitumor effect of a WT1 peptide vaccine was also examined. For this test, the following four groups were prepared: a physiological saline group, a WT1 peptide (100 μg/mouse) plus poly(I:C) (InvivoGen; Poly(I:C) HMW VacciGrade, 50 μg/mouse) group, a WT1 peptide (100 μg/mouse) plus OSK-1 peptide (100 μg/mouse) group and an OSK-1-WT1 conjugate (350 μg/mouse) group (6 animals per group). The vaccines were administered to C57BL/6J mice once a week, 4 times in total. One week after the 4th administration, B16F10 melanoma cells (1×10^5 cells/mouse) were implanted into the dorsal skin. The vaccines were administered again one week after the cell implantation. The body weight and the diameter of the tumor were measured twice a week after the cell implantation. The diameter of the tumor was measured using a digital caliper, and the tumor volume was calculated by the formula: (major axis)×(minor axis)^2.

Experiment [4] deals with B16F10 melanoma cells. As to conditions: 350 μg/mouse, vaccination started on day of implantation of B16F10 (3×10^5 cells/mouse). As to the method:
The antitumor effect of the same OSK-1-WT1 conjugate as used in Reference Example 1 was assessed. For this test, the following four groups were prepared: a physiological saline group, a WT1 peptide (100 μg/mouse) plus poly(I:C) (InvivoGen; Poly (I:C) HMW VacciGrade, 50 μg/mouse) group, an OSK-1-WT1 conjugate (350 μg/mouse) group and a cisplatin (5 mg/kg) group (10 animals per group). B16F10 melanoma cells (3×10^5 cells/mouse) were implanted to C57BL/6J mice, and at the same day, the vaccines were intracutaneously administered into the dorsal skin. The day of cell implantation was designated as Day 0. The vaccines were administered on Day 7, Day 14, Day 21, Day 28 and Day 35. Twice a week after the cell implantation, the diameter of the tumor was measured using a digital caliper, and the tumor volume was calculated by the formula: (major axis)×(minor axis)^2.

The record followed here is patent US10980876B2, “Conjugate vaccine targeting a disease-causing biological protein” (OSAKA UNIVERSITY, priority 2016, dated 2021).

Read-outs that look alike come from different tables or passages of the source.

“Ac-ELKLIFLHRLKRLRKRLKRK-X-ENSTFESFG (X=ε-Acp) [OSK1-DPP4-17]”: in the experiment on DPP4 epitope peptide [1] (100 μg/mouse intracutaneously 3 times at 2-week intervals, blood until 8 weeks, FIG. 1), the “antibody production against the DPP4 epitope peptide (antibody titer, ELISA)” value is “antibody production against the DPP4 epitope peptide was observed”. Also, in the experiment with DPP4 epitope peptide [1] (OSK-1-DPP4 100 μg/mouse, KLH-DPP4 20 μg/mouse, Alum 1 mg/mouse, 3 times at 2-week intervals, up to 12 weeks, FIG. 2), the “antibody production-inducing capability (antibody titer against the DPP4 epitope peptide)” value was “comparable to that of the KLH-DPP4 conjugate”. Moreover, in the experiment on DPP4, the “IgE production against the target protein (serum IgE antibody against DPP4)” value is listed as “no IgE production against the target protein was observed”. The “titer of each IgG subclass of antibodies against the DPP4 epitope peptide” value in the experiment on DPP4 epitope peptide [2] was “IgG2a and IgG2b, which are Th1-type IgG subclasses, were also produced at high levels in addition to IgG1”.

Consider “Ac-ELKLIFLHRLKRLRKRLKRK-X-RMFPNAPYL (X=ε-Acp) [OSK-1-WT1 conjugate]”, for which the “inhibitory effect on tumor growth (tumor volume)” value was “the inhibitory effect on tumor growth and the survival benefit were observed” in the experiment on B16F10 melanoma cells [3] (FIG. 4); “modest, but the tumor volume was kept at lower levels than that of the physiological saline administration group (negative control) until Day 32” with B16F10 melanoma cells [4] (FIG. 6). Moreover, the “survival benefit (survival rate)” value is “the inhibitory effect on tumor growth and the survival benefit were observed” with B16F10 melanoma cells [3] (FIG. 5); “comparable to those in the WT1 peptide plus poly(I:C) group and the cisplatin group” with B16F10 melanoma cells [4] (FIG. 7).
